Columns and labels:
lettuce (Green Wave) [1] = assay: Example 1: High-temperature stress Petri dish test (lettuce), comparison with other natural products; format: in vivo; conditions: 0.1 ppm in agar medium
lettuce (Green Wave) [2] = assay: Example 4: High-temperature stress Petri dish test (lettuce), comparison with flavonoids; format: in vivo; conditions: 0.1 ppm
lettuce (Green Wave) [3] = assay: Example 2: High-temperature stress Petri dish test (lettuce), blending with neohesperidin
Procedure: For seeds, 2% water agar medium (using water as the solvent), which was prepared such that hesperidin (Fujifilm Wako Pure Chemical Corporation; special-grade reagent) and neohesperidin (Fujifilm Wako Pure Chemical Corporation; special-grade reagent) were contained at the predetermined final concentrations shown in Table 2, was filled into square Petri dishes (“model number: D-210-16”, manufactured by As One Corporation). Before high-temperature treatment, lettuce (Green Wave, Takii & Co., Ltd.) was sown on 2% water agar medium, and lettuce seedlings on day 2 after the sowing were transplanted to the above-described agar medium to which the hesperidin and/or the like was/were added. At the time of the transplantation, the tip of the root was marked. Each Petri dish after the transplantation was placed in an incubator (“model number: FLI-2010A”, manufactured by EYELA) at an angle of 45° with respect to the bottom surface, and high-temperature treatment was carried out at 42° C. for 1.5 hours. Thereafter, culture was similarly performed at 23° C. for 2 days, and then the increase in the root length was evaluated in terms of elongation from the tip of the root of each seedling at the time of the transplantation. In addition, for evaluation of the effect of the mixture of hesperidin and neohesperidin in normal cultivation, culture was similarly performed at 23° C. without performing the high-temperature treatment, followed by evaluation of the increase in the root length. […] The Colby's equation is as follows.
E=(x+y)−(x·y)/100 Colby's equation:
E: Expected root length x: Root length in the case of application of hesperidin alone y: Root length in the case of application of neohesperidin alone For each group, 15 measurement results were obtained (N=15).

lettuce (Green Wave) [4] = assay: Example 3: High-temperature stress Petri dish test (lettuce), blending with β-carotene; format: in vivo; conditions: 0.1 ppm
Rice (Koshihikari) seeds = assay: Example 5: High-temperature stress Petri dish test (rice seeds); format: in vivo; conditions: for Germination rate, Increase rate: non-addition group = 100.0; for Germination rate, Average: seeds 65° C. hot water 10 minutes, 28° C. 5 days
Procedure: Rice (Koshihikari) seeds were soaked in hot water at 65° C. for 10 minutes to perform high-temperature treatment. […] A group similarly soaked in distilled water was provided as a non-addition group. After the soaking treatment, the seeds were dried in air, and then 20 seeds were sown on each of shallow Petri dishes in which qualitative filter paper was placed. To the filter paper in each Petri dish, 5 mL of distilled water was uniformly added dropwise. […] For each group, three measurement results were obtained (N=3).

[5] = High-temperature treatment (42° C., 1.5 hours), then 23° C. 2 days
[6] = High-temperature treatment (42° C., 1.5 hours)

Compound	Root length (lettuce (Green Wave) [1]; [5])	Root length (lettuce (Green Wave) [1]; Normal cultivation)	further results
CC1=C(/C=C/C(C)=C/C=C/C(C)=C/C=C/C=C(C)/C=C/C=C(C)/C=C/C2=C(C)C(=O)[C@@H](O)CC2(C)C)C(C)(C)C[C@H](O)C1=O [Astaxanthin, reference compound]	11.1 mm	20.0 mm	–
CC1=C(/C=C/C(C)=C/C=C/C(C)=C/C=C/C=C(C)/C=C/C=C(C)/C=C/C(=O)[C@]2(C)C[C@@H](O)CC2(C)C)C(C)(C)C[C@H](O)C1 [Capsanthin, reference compound]	10.7 mm	20.4 mm	–
O=c1c(-c2ccc(O)cc2)coc2cc(O)ccc12 [Daidzein]	–	–	Root length (lettuce (Green Wave) [2]; [6]): 7.5 mm; Root length (lettuce (Green Wave) [2]; Normal cultivation): 26.6 mm
O=c1c(-c2ccc(O)cc2)coc2cc(O)cc(O)c12 [Genistein]	–	–	Root length (lettuce (Green Wave) [2]; [6]): 7.4 mm; Root length (lettuce (Green Wave) [2]; Normal cultivation): 25.8 mm
COc1ccc([C@@H]2CC(=O)c3c(O)cc(O)cc3O2)cc1O [Hesperetin, hesperetin]	18.0 mm	23.5 mm	–
O=C1C[C@@H](c2ccc(O)cc2)Oc2cc(O)cc(O)c21 [Naringenin]	–	–	Root length (lettuce (Green Wave) [2]; [6]): 8.4 mm; Root length (lettuce (Green Wave) [2]; Normal cultivation): 22.1 mm
COc1ccc(CCC(=O)c2c(O)cc(O[C@@H]3O[C@H](CO)[C@@H](O)[C@H](O)[C@H]3O[C@@H]3O[C@@H](C)[C@H](O)[C@@H](O)[C@H]3O)cc2O)cc1O [Neohesperidin dihydrochalcone, neohesperidin dihydrochalcone]	15.3 mm	23.4 mm	–
COc1ccc([C@@H]2CC(=O)c3c(O)cc(O[C@@H]4O[C@H](CO)[C@@H](O)[C@H](O)[C@H]4O[C@@H]4O[C@@H](C)[C@H](O)[C@@H](O)[C@H]4O)cc3O2)cc1O [Neohesperidin]	21.5 mm	26.5 mm	Root length (lettuce (Green Wave) [3]; High-temperature treatment (42° C., 1.5 hours), 0.03 ppm): 4.9 mm; Root length (lettuce (Green Wave) [3]; High-temperature treatment (42° C., 1.5 hours), 0.1 ppm): 6.4 mm; Root length (lettuce (Green Wave) [3]; Normal cultivation, 0.03 ppm): 17.6 mm; Root length (lettuce (Green Wave) [3]; Normal cultivation, 0.1 ppm): 18.1 mm
COc1ccc(-c2cc(=O)c3c(OC)c(OC)c(OC)c(OC)c3o2)cc1OC [Nobiletin, nobiletin]	14.1 mm	23.1 mm	–
O=C(CCc1ccc(O)cc1)c1c(O)cc(O)cc1O [Phloretin, phloretin]	14.8 mm	21.9 mm	–
COc1ccc(-c2cc(=O)c3c(OC)c(OC)c(OC)c(OC)c3o2)cc1 [Tangeretin, tangeretin]	18.1 mm	23.5 mm	–
COc1ccc([C@@H]2CC(=O)c3c(O)cc(O[C@@H]4O[C@H](CO[C@@H]5O[C@@H](C)[C@H](O)[C@@H](O)[C@H]5O)[C@@H](O[C@H]5O[C@H](CO)[C@@H](O)[C@H](O)[C@H]5O)[C@H](O)[C@H]4O)cc3O2)cc1O [α-Monoglucosyl hesperidin, α-monoglucosyl hesperidin]	18.7 mm	23.7 mm	–
CC1=C(/C=C/C(C)=C/C=C/C(C)=C/C=C/C=C(C)/C=C/C=C(C)/C=C/C2=C(C)CCCC2(C)C)C(C)(C)CCC1 [β-Carotene, reference compound]	11.2 mm	22.3 mm	Root length (lettuce (Green Wave) [4]; [6]): 7.5 mm; Root length (lettuce (Green Wave) [4]; Normal cultivation): 23.8 mm; Germination rate, Increase rate (Rice (Koshihikari) seeds; 1 ppm): 118.9%; Germination rate, Increase rate (Rice (Koshihikari) seeds; 10 ppm): 134.0%; Germination rate, Increase rate (Rice (Koshihikari) seeds; 100 ppm): 103.7%; Germination rate, Average (Rice (Koshihikari) seeds; then soaked 1 hour at 1 ppm): 69.9%; Germination rate, Average (Rice (Koshihikari) seeds; then soaked 1 hour at 10 ppm): 78.8%; Germination rate, Average (Rice (Koshihikari) seeds; then soaked 1 hour at 100 ppm): 61.0%
hesperidin methylchalcone	16.7 mm	22.8 mm	–
